The record followed here is PMC5823406, “Vehicle development, pharmacokinetics and toxicity of the anti-invasive agent 4-fluoro-3’,4’,5’-trimethoxychalcone in rodents” (PLoS ONE, 2018).

Data set [1] is described as follows: Solubility in vehicles, laser nephelometry. The data set is classed as physicochemical. On the procedure: The solubility of C16 was tested at 10 and 30 mg/mL for the indicated vehicles using laser nephelometry in 96-well plates (BMG LabTech NEPHELOstar microplate reader, BMG LabTech, USA). Solutions were prepared using solubilizing techniques including sonication, heating up to 37 °C and vortex. Solubility data was categorized as soluble (result ≤ +15 of blank), slightly soluble (result between +15 and +25 of blank) or not soluble (result > +25 of blank).
C16 has low aqueous solubility, which limits the choice of preclinical formulations for in vivo studies. In this work, thirteen vehicles were evaluated for their applicability in single-dose studies (Table 1). For commonly used systems (entries a-e) visual determination of solubility was conducted, while for the more complex systems solubility was assessed by laser nephelometry.

The next data set deals with Caco-2. As to the kind of experiment: Caco-2 permeability and recovery. The data set is classed as in vitro ADME. The settings on record: Caco-2, pH 7.4/7.4; 10 μM. The source says: Table 3 In vitro physicochemical, stability and metabolism data. | column: Value

For the molecule `COc1cc(C(=O)/C=C/c2ccc(F)cc2)cc(OC)c1OC` [C16, 4-fluoro-3’,4’,5’-trimethoxychalcone], the “Solubility of C16 in vehicle: Result” value is recorded as “Insoluble ^b” in data set [1] (10% Cremophor EL / 10% EtOH, 10 mg/mL); “Insoluble ^b” in data set [1] (10% Cremophor EL / 10% EtOH, 30 mg/mL); “Insoluble ^b” in data set [1] (10% DMA / 10% EtOH / 20% PG, 10 mg/mL); “Insoluble ^b” in data set [1] (10% DMA / 10% EtOH / 20% PG, 30 mg/mL); “Soluble ^b” in data set [1] (10% Dimethylacetamide (DMA) / 90% PEG 600, 10 mg/mL); “Soluble ^b” in data set [1] (10% Dimethylacetamide (DMA) / 90% PEG 600, 30 mg/mL). The “Solubility of C16 in vehicle: Result” value is recorded as “Soluble ^b” in data set [1] (10% Solutol HS-15 / 90% PEG 600, 10 mg/mL); “Soluble ^b” in data set [1] (10% Solutol HS-15 / 90% PEG 600, 30 mg/mL); “Insoluble ^b” in data set [1] (10%DMA / 20%PG / 40% PEG 400, 10 mg/mL); “Insoluble ^b” in data set [1] (10%DMA / 20%PG / 40% PEG 400, 30 mg/mL); “Insoluble ^b” in data set [1] (20% PEG 400 / 10% Cremophor EL, 10 mg/mL); “Insoluble ^b” in data set [1] (20% PEG 400 / 10% Cremophor EL, 30 mg/mL). The “Solubility of C16 in vehicle: Result” value in data set [1] (40% PEG 400 / 10% EtOH, 10 mg/mL) was “Insoluble ^b”; in data set [1] (40% PEG 400 / 10% EtOH, 30 mg/mL) it was “Insoluble ^b”; in data set [1] (100% Corn oil, 10 mg/mL), “Insoluble ^b”; in data set [1] (100% Corn oil, 30 mg/mL), “Insoluble ^b”. Also, in the data set on Caco-2, the “Permeability A-B” value is recorded as 10.4 10^−6 cm/s. For the same molecule, the “Permeability A-B: recovery” value with Caco-2 was 17%. In the data set on Caco-2, the “Permeability B-A” value was 4.9 10^−6 cm/s. For the same molecule, the “Permeability B-A: recovery” value in the data set with Caco-2 came out at 66%.
